Measurements: the supplement of paper PMC11061612

Experiments:
[1] = compound: C1CN(CCC1(C(=O)N[C@@H](CCO)C2=CC=C(C=C2)Cl)N)C3=NC=NC4=C3C=CN4 [Capivasertib]; details: max 10 µM
Summary of the method: (§1)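 Cancer cell lines were seeded in 1536-well plates in 7.5 μl DMEM/F12 or RPMI with 10% FBS, held 24 hours at 37°C and 5% CO2, then dosed for 72 hours (final DMSO typically 0.2%). Viability was read by CellTiter-Glo 2.0 luminescence and scaled between blank-well and DMSO-well means. The single-agent IC50 comes from dose responses fitted to a two-parameter logistic curve with a non-linear mixed effects model.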

[2] = compound: Cn1cnc2c(F)c(Nc3ccc(Br)cc3Cl)c(C(=O)NOCCO)cc21 [Selumetinib]; details: max 10 µM
Summary of the method: as §1

[3] = compound: CCN(CCO)CCCOc1ccc2c(Nc3cc(CC(=O)Nc4cccc(F)c4)[nH]n3)ncnc2c1 [AZD2811]; details: max 1 µM
Summary of the method: as §1

[4] = compound: CC1(C)CCC(CN2CCN(c3ccc(C(=O)NS(=O)(=O)c4ccc(NCC5CCOCC5)c([N+](=O)[O-])c4)c(Oc4cnc5[nH]ccc5c4)c3)CC2)=C(c2ccc(Cl)cc2)C1 [Venetoclax]; details: max 1 µM
Summary of the method: as §1

[5] = compound: COc1cccc(OCCCN)c1-c1cc(Nc2cnc(C#N)cn2)n[nH]1 [Prexasertib]; details: max 1 µM
Summary of the method: as §1

[6] = compound: CN(CC[C@H](CSC1=CC=CC=C1)NC2=C(C=C(C=C2)S(=O)(=O)NC(=O)C3=CC=C(C=C3)N4CCC(CC4)[C@H](C5=CC=CC=C5C6=CC=C(C=C6)Cl)O)S(=O)(=O)C(F)(F)F)CCO [AZD4320]; details: max 1 µM
Summary of the method: as §1

[7] = compound: Cc1c2c(nn1C)CSCc1cc(n(C)n1)CSc1cc(c3ccccc3c1)OCCCc1c(C(=O)O)n(C)c3c-2c(Cl)ccc13 [AZD5991]; details: max 1 µM
Summary of the method: as §1

[8] = compound: C[C@@H](Nc1cc(F)cc(F)c1)c1cc(C(=O)N(C)C)cc2c(=O)cc(N3CCOCC3)oc12 [AZD8186]; details: max 3 µM
Summary of the method: as §1

[9] = compound: CC1=C(C(=CC=C1)Cl)NC(=O)C2=CN=C(S2)NC3=CC(=NC(=N3)C)N4CCN(CC4)CCO [Dasatinib]; details: max 2 µM
Summary of the method: as §1

[10] = compound: Cc1nc(-c2cn3c(n2)-c2ccc(-c4cnn(C(C)(C)C(N)=O)c4)cc2OCC3)n(C(C)C)n1 [Taselisib]; details: max 10 µM
Summary of the method: as §1

[11] = compound: C=CCn1c(=O)c2cnc(Nc3ccc(N4CCN(C)CC4)cc3)nc2n1-c1cccc(C(C)(C)O)n1 [AZD1775]; details: max 3 µM
Summary of the method: as §1

[12] = compound: CC(C)n1c(=O)n(C)c2cnc3cc(F)c(-c4ccc(OCCCN5CCCCC5)nc4)cc3c21 [AZD1390]; details: max 0.3 µM
Summary of the method: as §1

[13] = compound: COc1cccc2c1C(=O)c1c(O)c3c(c(O)c1C2=O)C[C@@](O)(C(=O)CO)C[C@@H]3O[C@H]1C[C@H](N)[C@H](O)[C@H](C)O1 [Doxorubicin]; details: max 1 µM
Summary of the method: as §1

[14] = compound: COc1cc2ncnc(Nc3ccc(F)c(Cl)c3)c2cc1OCCCN1CCOCC1 [Gefitinib]; details: max 10 µM
Summary of the method: as §1

[15] = compound: COc1cc(Nc2ncc3c(n2)-c2ccc(Cl)cc2C(c2c(F)cccc2OC)=NC3)ccc1C(=O)O [Alisertib]; details: max 10 µM
Summary of the method: as §1

[16] = compound: CC1=CN2[C@@H](C1)C=NC3=CC(=C(C=C3C2=O)OC)OCCCCCOC4=C(C=C5C(=C4)N=C[C@@H]6CC(=CN6C5=O)C)OC [SG3199]; details: max 0.001 µM
Summary of the method: as §1

[17] = compound: C[C@@H](c1ccc2nccn2c1)n1nnc2ncc(-c3cnn(C)c3)nc21 [Savolitinib]; details: max 1 µM
Summary of the method: as §1

[18] = compound: CS(=O)(=O)CCNCc1ccc(-c2ccc3ncnc(Nc4ccc(OCc5cccc(F)c5)c(Cl)c4)c3c2)o1 [Lapatinib]; details: max 10 µM
Summary of the method: as §1

[19] = compound: CCc1c2c(nc3ccc(O)cc13)-c1cc3c(c(=O)n1C2)COC(=O)[C@]3(O)CC [SN-38]; details: max 0.3 µM
Summary of the method: as §1

[20] = compound: CN(C)CCCOc1ccc(-c2ccc3ncc4c(c3c2)n(C2CCOCC2)c(=O)n4C)cn1 [AZD0156]; details: max 3 µM
Summary of the method: as §1

[21] = compound: C[C@@H]1COCCN1C2=NC(=NC(=C2)C3(CC3)[S@](=N)(=O)C)C4=C5C=CNC5=NC=C4 [AZD6738]; details: max 10 µM
Summary of the method: as §1

[22] = compound: CC(=O)c1c(C)c2cnc(Nc3ccc(N4CCNCC4)cn3)nc2n(C2CCCC2)c1=O [Palbociclib]; details: max 10 µM
Summary of the method: as §1

[23] = compound: C[C@@H](Oc1cc(-c2cnn(C3CCNCC3)c2)cnc1N)c1c(Cl)ccc(F)c1Cl [Crizotinib]; details: max 10 µM
Summary of the method: as §1

[24] = compound: COc1nnc2ccc(N3CCC(c4ccc(OCCN5CCN(C)C(=O)[C@H]5C)cc4)CC3)nn12 [AZD5153]; details: max 1 µM
Summary of the method: as §1

[25] = compound: O=C(c1cc(Cc2n[nH]c(=O)c3ccccc23)ccc1F)N1CCN(C(=O)C2CC2)CC1 [Olaparib]; details: max 10 µM
Summary of the method: as §1

[26] = compound: Cc1cc2ncnn2cc1Nc1ncc2c(n1)n(C1CCOCC1)c(=O)n2C [AZD7648]; details: max 10 µM
Summary of the method: as §1

[27] = compound: CC(=O)Nc1cccc(-n2c(=O)n(C3CC3)c(=O)c3c(Nc4ccc(I)cc4F)n(C)c(=O)c(C)c32)c1 [Trametinib]; details: max 1 µM
Summary of the method: as §1

Cell Line	IC50, cell viability 72 h [1]	IC50, cell viability 72 h [2]	IC50, cell viability 72 h [3]	IC50, cell viability 72 h [4]	IC50, cell viability 72 h [5]	IC50, cell viability 72 h [6]	IC50, cell viability 72 h [7]	IC50, cell viability 72 h [8]	IC50, cell viability 72 h [9]	IC50, cell viability 72 h [10]	IC50, cell viability 72 h [11]	IC50, cell viability 72 h [12]	IC50, cell viability 72 h [13]	IC50, cell viability 72 h [14]	IC50, cell viability 72 h [15]	IC50, cell viability 72 h [16]	IC50, cell viability 72 h [17]	IC50, cell viability 72 h [18]	IC50, cell viability 72 h [19]	IC50, cell viability 72 h [20]	IC50, cell viability 72 h [21]	IC50, cell viability 72 h [22]	IC50, cell viability 72 h [23]	IC50, cell viability 72 h [24]	IC50, cell viability 72 h [25]	IC50, cell viability 72 h [26]	IC50, cell viability 72 h [27]
42-MG-BA (Glioblastoma)	2250 nM	> 10000 nM	> 1000 nM	> 1000 nM	25.3 nM	> 1000 nM	299 nM	2530 nM	54.6 nM	627 nM	1050 nM	> 300 nM	163 nM	> 10000 nM	8550 nM	> 1 nM	> 1000 nM	> 10000 nM	7.39 nM	> 3000 nM	8570 nM	> 10000 nM	> 10000 nM	401 nM	> 10000 nM	> 10000 nM	> 1000 nM
AGS (Gastric Carcinoma)	> 10000 nM	767 nM	> 1000 nM	> 1000 nM	839 nM	> 1000 nM	> 1000 nM	> 3000 nM	> 2000 nM	577 nM	455 nM	> 300 nM	151 nM	> 10000 nM	> 10000 nM	> 1 nM	> 1000 nM	> 10000 nM	22.6 nM	> 3000 nM	4930 nM	> 10000 nM	> 10000 nM	251 nM	> 10000 nM	> 10000 nM	11.9 nM
COLO-205 (Colorectal Carcinoma)	> 10000 nM	302 nM	116 nM	> 1000 nM	782 nM	> 1000 nM	> 1000 nM	> 3000 nM	> 2000 nM	4250 nM	> 3000 nM	> 300 nM	518 nM	> 10000 nM	743 nM	> 1 nM	> 1000 nM	> 10000 nM	> 300 nM	> 3000 nM	> 10000 nM	7970 nM	4110 nM	499 nM	> 10000 nM	> 10000 nM	6.16 nM
DEL (T-Cell Non-Hodgkin's Lymphoma)	> 10000 nM	> 10000 nM	151 nM	> 1000 nM	5.4 nM	> 1000 nM	28.7 nM	> 3000 nM	> 2000 nM	> 10000 nM	178 nM	> 300 nM	91.3 nM	> 10000 nM	20.3 nM	> 1 nM	> 1000 nM	8540 nM	2.3 nM	2810 nM	707 nM	3530 nM	120 nM	27.5 nM	8260 nM	> 10000 nM	> 1000 nM
Daoy (Other Solid Carcinomas)	> 10000 nM	> 10000 nM	> 1000 nM	> 1000 nM	46.7 nM	> 1000 nM	> 1000 nM	> 3000 nM	> 2000 nM	4730 nM	398 nM	> 300 nM	141 nM	> 10000 nM	818 nM	> 1 nM	> 1000 nM	> 10000 nM	4.44 nM	> 3000 nM	3180 nM	> 10000 nM	> 10000 nM	489 nM	> 10000 nM	> 10000 nM	> 1000 nM
EC-GI-10 (Esophageal Squamous Cell Carcinoma)	> 10000 nM	> 10000 nM	> 1000 nM	> 1000 nM	171 nM	> 1000 nM	> 1000 nM	> 3000 nM	> 2000 nM	496 nM	516 nM	> 300 nM	> 1000 nM	3700 nM	9240 nM	> 1 nM	> 1000 nM	770 nM	17.4 nM	> 3000 nM	8220 nM	> 10000 nM	> 10000 nM	> 1000 nM	> 10000 nM	> 10000 nM	283 nM
ES4 (Ewing's Sarcoma)	> 10000 nM	> 10000 nM	> 1000 nM	> 1000 nM	24.3 nM	> 1000 nM	> 1000 nM	> 3000 nM	> 2000 nM	3240 nM	> 3000 nM	> 300 nM	431 nM	> 10000 nM	> 10000 nM	> 1 nM	> 1000 nM	> 10000 nM	8.83 nM	> 3000 nM	2030 nM	> 10000 nM	> 10000 nM	246 nM	> 10000 nM	> 10000 nM	> 1000 nM
